± gives the expanded uncertainty stated by the source.
Conditions: Liquid, Vibrating tube method

CCCCCCCCCC [decane]
Conditions	mass density [kg/m3]
283.55 K, 5000 kPa	742 ± 3
283.56 K, 3000 kPa	740 ± 3
283.56 K, 20000 kPa	752 ± 3
283.56 K, 30000 kPa	758 ± 3
283.56 K, 40000 kPa	763 ± 3
283.56 K, 50000 kPa	769 ± 3
283.56 K, 60000 kPa	774 ± 3
283.56 K, 70000 kPa	779 ± 3
283.56 K, 80000 kPa	783 ± 3
283.56 K, 90000 kPa	788 ± 3
283.57 K, 1000 kPa	739 ± 3
283.57 K, 10000 kPa	745 ± 3
283.58 K, 100 kPa	738 ± 3
293.48 K, 100 kPa	731 ± 3
293.48 K, 1000 kPa	731 ± 3
293.49 K, 5000 kPa	734 ± 3
293.49 K, 10000 kPa	738 ± 3
293.49 K, 20000 kPa	745 ± 3
293.5 K, 30000 kPa	751 ± 3
293.5 K, 40000 kPa	757 ± 3
293.5 K, 50000 kPa	763 ± 3
293.5 K, 100000 kPa	787 ± 3
293.51 K, 60000 kPa	768 ± 3
293.51 K, 70000 kPa	773 ± 3
293.51 K, 80000 kPa	778 ± 3
293.51 K, 90000 kPa	783 ± 3
303.42 K, 100 kPa	723 ± 3
303.42 K, 1000 kPa	724 ± 3
303.42 K, 10000 kPa	731 ± 3
303.42 K, 30000 kPa	745 ± 3
303.42 K, 40000 kPa	751 ± 3
303.42 K, 70000 kPa	768 ± 3
303.42 K, 80010 kPa	773 ± 3
303.42 K, 90000 kPa	777 ± 3
303.43 K, 5000 kPa	727 ± 3
303.43 K, 20000 kPa	738 ± 3
303.43 K, 50000 kPa	757 ± 3
303.43 K, 60000 kPa	762 ± 3
303.43 K, 100000 kPa	782 ± 3
313.35 K, 100 kPa	716 ± 3
313.35 K, 1000 kPa	717 ± 3
313.35 K, 5000 kPa	721 ± 3
313.35 K, 40000 kPa	746 ± 3
313.36 K, 20000 kPa	732 ± 3
313.36 K, 50000 kPa	752 ± 3
313.36 K, 70000 kPa	763 ± 3
313.36 K, 80000 kPa	768 ± 3
313.36 K, 90000 kPa	773 ± 3
313.36 K, 100000 kPa	777 ± 3
313.37 K, 10000 kPa	725 ± 3
313.37 K, 30000 kPa	739 ± 3
313.37 K, 60000 kPa	757 ± 3
323.24 K, 100 kPa	708 ± 3
323.24 K, 1000 kPa	709 ± 3
323.24 K, 100000 kPa	771 ± 3
323.25 K, 5000 kPa	712 ± 3
323.25 K, 10000 kPa	717 ± 3
323.25 K, 20000 kPa	725 ± 3
323.25 K, 30000 kPa	732 ± 3
323.25 K, 40000 kPa	739 ± 3
323.25 K, 50000 kPa	745 ± 3
323.25 K, 60000 kPa	751 ± 3
323.25 K, 70000 kPa	757 ± 3
323.25 K, 80000 kPa	762 ± 3
323.25 K, 90000 kPa	767 ± 3
333.12 K, 5000 kPa	705 ± 3
333.12 K, 10000 kPa	710 ± 3
333.12 K, 20000 kPa	718 ± 3
333.13 K, 100 kPa	700 ± 3
333.13 K, 1000 kPa	701 ± 3
333.13 K, 30000 kPa	726 ± 3
333.13 K, 80000 kPa	757 ± 3
333.13 K, 90000 kPa	762 ± 3
333.13 K, 100000 kPa	767 ± 3
333.14 K, 40000 kPa	733 ± 3
333.14 K, 50000 kPa	740 ± 3
333.14 K, 60000 kPa	746 ± 3
333.14 K, 70000 kPa	751 ± 3
343.01 K, 100 kPa	693 ± 3
343.01 K, 1000 kPa	694 ± 3
343.01 K, 10000 kPa	703 ± 3
343.01 K, 20000 kPa	712 ± 3
343.01 K, 30000 kPa	720 ± 3
343.01 K, 40000 kPa	727 ± 3
343.01 K, 50000 kPa	734 ± 3
343.01 K, 60000 kPa	740 ± 3
343.02 K, 5000 kPa	698 ± 3
343.02 K, 70000 kPa	746 ± 3
343.02 K, 80000 kPa	752 ± 3
343.02 K, 90000 kPa	757 ± 3
343.02 K, 100000 kPa	762 ± 3
352.87 K, 100 kPa	686 ± 3
352.87 K, 1000 kPa	687 ± 3
352.87 K, 5000 kPa	691 ± 3
352.88 K, 10000 kPa	696 ± 3
352.88 K, 20000 kPa	706 ± 3
352.88 K, 30000 kPa	714 ± 3
352.88 K, 40000 kPa	722 ± 3
352.88 K, 50000 kPa	729 ± 3
352.88 K, 60000 kPa	735 ± 3
352.89 K, 70000 kPa	741 ± 3
352.89 K, 80000 kPa	747 ± 3
352.89 K, 90000 kPa	753 ± 3
352.89 K, 100000 kPa	758 ± 3
362.69 K, 100 kPa	677 ± 3
362.69 K, 1000 kPa	678 ± 3
362.7 K, 5000 kPa	683 ± 3
362.7 K, 10000 kPa	689 ± 3
362.71 K, 20000 kPa	699 ± 3
362.71 K, 30000 kPa	708 ± 3
362.71 K, 40000 kPa	716 ± 3
362.71 K, 50000 kPa	723 ± 3
362.71 K, 60000 kPa	730 ± 3
362.72 K, 70000 kPa	736 ± 3
362.72 K, 80000 kPa	742 ± 3
362.72 K, 90000 kPa	747 ± 3
362.72 K, 100000 kPa	753 ± 3

Source: the NIST ThermoML archive (doi:10.1016/j.fluid.2017.12.010)
